The values below come from ChEMBL document CHEMBL1126675, “Structure-based design of inhibitors of purine nucleoside phosphorylase. 1. 9-(arylmethyl) derivatives of 9-deazaguanine” (J Med Chem, 1993).

As a reminder, the pIC50 is the IC50 on a negative log10 scale, so that one unit is a factor of ten. What is called pKi is the negative decadic logarithm of the Ki, by convention in mol/L. A lower pKi goes with a high Ki.

pIC50, pKi: −log10 of the molar value.

For one assay, the target named is T1, Purine nucleoside phosphorylase (Bos taurus, UniProt P55859).
T1 sequence (P55859 whole entry): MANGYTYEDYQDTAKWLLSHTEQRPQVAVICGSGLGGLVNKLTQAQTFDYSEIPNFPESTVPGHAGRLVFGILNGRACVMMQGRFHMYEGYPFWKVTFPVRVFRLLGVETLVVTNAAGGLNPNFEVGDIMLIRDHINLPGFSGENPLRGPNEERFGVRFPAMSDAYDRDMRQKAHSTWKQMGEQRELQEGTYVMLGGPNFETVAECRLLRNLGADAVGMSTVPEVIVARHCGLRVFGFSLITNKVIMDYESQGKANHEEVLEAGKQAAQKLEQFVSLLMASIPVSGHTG
Description: Inhibition of purine nucleoside phosphorylase against the enzyme from calf spleen in 1 mM phosphate.
Regarding `Nc1nc2c(Cc3cccc(C(F)(F)F)c3)c[nH]c2c(=O)[nH]1`, the negative-log IC50 (pIC50) was 7.44. For the compound `Nc1nc2c(Cc3cccc(F)c3)c[nH]c2c(=O)[nH]1`, the negative-log IC50 (pIC50) was 7.62. Compound `Nc1nc2c(Cc3ccc(Cl)c(Cl)c3)c[nH]c2c(=O)[nH]1` gave a negative logarithm of the IC50 (pIC50) of 7.77.

In turn, `NC1=NC(=O)C2NC(N)=C(Cc3ccsc3)C2N1` (configuration not stated) showed a negative logarithm of the IC50 (pIC50) of 9.20. `Nc1nc(O)c2[nH]cc(Cc3ccco3)c2n1` had a negative logarithm of the IC50 (pIC50) of 7.08. For `Nc1nc2c(Cc3ccc(I)cc3)c[nH]c2c(=O)[nH]1`, the pIC50 was 7.64. `Nc1nc(O)c2nc(N)n(Cc3cccs3)c2n1` had a pIC50 of 6.80.

`Nc1nc2c(Cc3ccccc3O)c[nH]c2c(=O)[nH]1`: the negative logarithm of the IC50 (pIC50) is 6.57. The compound `NC1=NC(=O)C2NC=C(Cc3ccsc3)C2N1` (configuration not stated) had a negative-log IC50 (pIC50) of 10.17. Compound `Nc1nc(O)c2[nH]cc(Cc3ccc(O)cc3)c2n1` had a negative-log IC50 (pIC50) of 6.59. `COc1cccc(Cc2c[nH]c3c(O)nc(N)nc23)c1` gave a pIC50 of 7.09. This pIC50 lies 0.50 log units higher than the previous one. The same measure, in the same setting: in the case of `Nc1nc(O)c2[nH]cc(Cc3ccsc3)c2n1` it was 7.60. As to `Nc1nc2c(Cc3cccc(Cl)c3)c[nH]c2c(=O)[nH]1`, the pIC50 is 7.70. The compound `Nc1nc(O)c2[nH]cc(Cc3ccccc3Cl)c2n1` gave a negative-log IC50 (pIC50) of 6.92. Compared with the last compound, the pIC50 is 0.78 log units lower. `Cc1cccc(Cc2c[nH]c3c(=O)[nH]c(N)nc23)c1` showed a pIC50 of 7.24.

The compound `Nc1nc2c(Cc3cccnc3)c[nH]c2c(=O)[nH]1` [PELDESINE] had a pIC50 of 7.60. On the same count and under the same terms, next, `Nc1nc(O)c2[nH]cc(Cc3cc(Cl)cc(Cl)c3Cl)c2n1`: 6.62.

The target of a further assay is T2, Purine nucleoside phosphorylase (Homo sapiens, UniProt P00491).
T2 sequence (P00491 whole entry): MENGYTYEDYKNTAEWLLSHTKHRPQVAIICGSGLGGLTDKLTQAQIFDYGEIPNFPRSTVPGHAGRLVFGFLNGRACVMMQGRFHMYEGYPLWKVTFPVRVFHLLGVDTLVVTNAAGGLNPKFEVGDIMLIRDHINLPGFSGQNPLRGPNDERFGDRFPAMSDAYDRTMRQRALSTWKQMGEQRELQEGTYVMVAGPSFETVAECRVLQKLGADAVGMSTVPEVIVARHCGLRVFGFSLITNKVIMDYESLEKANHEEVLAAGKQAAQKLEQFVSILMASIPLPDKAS
As to the kind of experiment: Inhibition of Purine nucleoside phosphorylase was evaluated against the enzyme from Human erythrocytic in 50 mM phosphate. Format: tissue-based.
For the compound `Nc1nc(O)c2c(n1)CC(Cc1ccco1)=N2`, the pIC50 is 7.24.

`Nc1nc(O)c2c(n1)CC(NCc1ccccc1)=N2` showed a pIC50 of 6.07. Still for that read-out and setting: in the case of `Nc1nc(O)c2c(n1)CC(Cc1ccccc1)=N2` it was 7.07; in that of `Cc1ccsc1CNc1nc2[nH]c(N)nc(O)c-2n1`, 5.39; in that of `Nc1nc(O)c2[nH]c(Cc3ccccc3)nc2n1`, 4.53. Turning to `Nc1nc(O)c2c(n1)CC(NCc1ccco1)=N2`, the negative-log IC50 (pIC50) was 6.12. The compound `Nc1nc(O)c2c(n1)CC(Cc1cccs1)=N2` gave a pIC50 of 7.52. `Cc1ccsc1CC1=Nc2c(O)nc(N)nc2C1` gave a pIC50 of 4.32. Compound `Nc1nc2nc(NCc3ccccc3)[nH]c2c(=O)[nH]1` showed a negative logarithm of the IC50 (pIC50) of 6.33.

`Nc1nc(O)c2[nH]c(Cc3ccsc3)nc2n1` gave a negative logarithm of the IC50 (pIC50) of 4.96. Compound `Nc1nc(O)c2[nH]c(Cc3ccco3)nc2n1` showed a negative-log IC50 (pIC50) of 4.75. In the case of `Nc1nc(O)c2c(n1)CC(NCc1cccs1)=N2`, the negative logarithm of the IC50 (pIC50) is 6.00. `Nc1nc(O)c2[nH]c(NCc3cccs3)nc2n1` gave a pIC50 of 6.80. `Nc1nc2nc(-c3cccnc3)[nH]c2c(=O)[nH]1` showed a pIC50 of 4.24. Take `Nc1nc(O)c2[nH]c(Nc3cccnc3)nc2n1`: the negative-log IC50 (pIC50) is 4.66.

As to `Cc1ccsc1CNC1=Nc2c(O)nc(N)nc2C1`, the pIC50 is 5.39. On to `Nc1nc(O)c2[nH]c(Cc3cccs3)nc2n1`, for which the pIC50 is 4.96.

In turn, `Nc1nc2nc(NCc3ccsc3)[nH]c2c(=O)[nH]1` had a negative logarithm of the IC50 (pIC50) of 7.07.

Take `Cc1ccsc1Cc1nc2nc(N)[nH]c(=O)c2[nH]1`: the pIC50 was 4.32. The compound `Nc1nc(O)c2c(n1)CC(NCc1ccsc1)=N2` gave a negative logarithm of the IC50 (pIC50) of 6.20. Turning to `Nc1nc(O)c2[nH]c(NCc3ccco3)nc2n1`, the pIC50 is 6.60. Take `Nc1nc(O)c2c(n1)CC(Cc1ccsc1)=N2`: the pIC50 is 7.17.

In the next assay the target is T1, Purine nucleoside phosphorylase. Description: Inhibition of Purine nucleoside phosphorylase was evaluated against the enzyme from calf spleen in 1 mM phosphate. Format: tissue-based.
The compound `NC1=NC(=O)C2NC=C(Cc3ccccc3)C2N1` (configuration not stated) showed a negative logarithm of the Ki (pKi) of 7.92. Compound `NC1=NC(=O)C2NC=C(Cc3ccsc3)C2N1` (configuration not stated) showed a pKi of 7.82.

The next assay has the same target. Description: Inhibition of Purine nucleoside phosphorylase was evaluated against the enzyme from calf spleen in 50 mM phosphate.
The compound `Nc1nc2c(Cc3cccc(C(F)(F)F)c3)c[nH]c2c(=O)[nH]1` showed a pIC50 of 6.72. Still for that read-out and setting: next, `Nc1nc2c(Cc3cccc(F)c3)c[nH]c2c(=O)[nH]1`: 6.66; `Nc1nc2c(Cc3ccc(Cl)c(Cl)c3)c[nH]c2c(=O)[nH]1`: 6.60. `NC1=NC(=O)C2NC=C(Cc3ccccc3)C2N1` (configuration not stated) had a pKi of 7.00.

`Nc1nc2c(Cc3ccc(I)cc3)c[nH]c2c(=O)[nH]1` gave a pIC50 of 6.57. Consider `Nc1nc(O)c2nc(N)n(Cc3cccs3)c2n1`, for which the negative logarithm of the IC50 (pIC50) is 6.80. Compared with the last compound, the pIC50 is 0.23 log units higher. Compound `Nc1nc(O)c2c(n1)CC(c1cccnc1)=N2` gave a negative logarithm of the IC50 (pIC50) of 9.80. In the case of `Nc1nc2c(Cc3ccccc3O)c[nH]c2c(=O)[nH]1`, the pIC50 was 5.70. In the case of `Nc1nc2c(Cc3cccc(Oc4ccccc4)c3)c[nH]c2c(=O)[nH]1`, the pIC50 was 6.13. Against the preceding compound, the pIC50 is 0.43 log units higher.

Consider `Nc1nc(O)c2[nH]cc(Cc3ccc(O)cc3)c2n1`, for which the pIC50 was 5.64.

In turn, `COc1cccc(Cc2c[nH]c3c(O)nc(N)nc23)c1` showed a negative-log IC50 (pIC50) of 6.18.

Regarding `Nc1nc2c(Cc3cccc(Cl)c3)c[nH]c2c(=O)[nH]1`, the pIC50 is 6.82. Same read-out and setting: in the case of `Nc1nc(O)c2[nH]cc(Cc3ccccc3Cl)c2n1` it was 5.60; in that of `Cc1cccc(Cc2c[nH]c3c(=O)[nH]c(N)nc23)c1`, 6.57; in that of `Nc1nc2c(Cc3cccnc3)c[nH]c2c(=O)[nH]1` [PELDESINE], 6.72. `Nc1nc(O)c2[nH]cc(Cc3cc(Cl)cc(Cl)c3Cl)c2n1` had a negative-log IC50 (pIC50) of 5.00.
